Measured values reported in PMC5125695, “Antiviral Efficacy of Verdinexor In Vivo in Two Animal Models of Influenza A Virus Infection” (PLoS ONE, 2016).
Like-named read-outs stand apart in the source and are kept apart here.

Columns and labels:
[1] = system: A/California/04/09-MA; details: cited from earlier work
[2] = in vivo
[3] = human, in vivo; cited from earlier work
[4] = system: A/California/04/09; parameters: species or system ferrets; details: in vivo
[5] = system: A/California/04/09; parameters: species or system ferrets; details: in vivo; remark: listed apart in the source
[6] = in vivo; details: male, po, 5 mg/kg
[7] = mice, 20 mg/kg at day 1 and 3; data not shown
[8] = system: A/California/04/09; parameters: species or system ferrets; details: in vivo; remark: listed apart in the source
[9] = system: A/California/04/09; format: in vivo, ferrets
[10] = system: various influenza A and B virus strains; details: cited from earlier work
[11] = preliminary results, phase I and II studies; cited from earlier work

Structure (SMILES): O=C(/C=C\n1cnc(-c2cc(C(F)(F)F)cc(C(F)(F)F)c2)n1)NNc1ccccn1 [verdinexor]
- Virus burden and inflammatory cytokines expression in lungs ([1]; mice infected with A/California/04/09-MA): efficacious in limiting virus burden and inflammatory cytokines expression
- Lung pathology and mortality upon lethal virus infection ([1]; mice, oral verdinexor): reduced lung pathology and mortality
- Clearance from the plasma [2]: more rapidly cleared from the plasma compared to mice
- Oral bioavailability ([2]; po): orally bioavailable
- Safety and tolerability in a phase I clinical trial [3]: safe and well-tolerated
- Infiltrating leukocytes in nasal washes at day 2 pi [4]: Lower numbers of infiltrating leukocytes
- Infiltrating leukocytes in nasal washes at day 4 pi ([4]; 10 mg/kg): significant (p≤0.05) reduction
- Infiltrating leukocytes in nasal washes at day 4 pi ([4]; 25 mg/kg): significant (p≤0.05) reduction
- Lung virus titers at day 4 pi ([5]; 10 mg/kg): considerably (p≤0.001) reduced lung virus titers
- Lung virus titers at day 4 pi ([5]; 15 mg/kg): considerably (p≤0.001) reduced lung virus titers
- Lung virus titers at day 4 pi ([5]; 25 mg/kg): considerably (p≤0.001) reduced lung virus titers
- AUC(0-inf) [6]: 3.51 µg·h/mL
- AUC(0-t) [6]: 3.51 µg·h/mL
- Cmax [6]: 1.49 µg/mL
- Tmax [6]: 0.361 h
- half-life [6]: 1.84 h
- Efficacy and tolerability of the treatment regimen [7]: most efficacious yet well tolerated
- Influenza-associated lung pathology and inflammation ([8]; 10 mg/kg): significant amelioration
- Lung score of the representative animal (range 0–4) ([8]; 10 mg/kg): 2
- Influenza-associated lung pathology and inflammation ([8]; 15 mg/kg): limited reduction in pathology
- Lung score of the representative animal (range 0–4) ([8]; 15 mg/kg): 2
- Influenza-associated lung pathology and inflammation ([8]; 25 mg/kg): significant amelioration
- Lung score of the representative animal (range 0–4) ([8]; 25 mg/kg): 2
- IFN-γ expression in nasal exudates at day 2 and 4 pi ([9]; […], not statistically significant): trend toward reduced IFN-γ expression
- IL-12p40 expression in nasal exudates at day 2 pi ([9]; in vivo, 10 mg/kg): reduced IL-12p40 expression
- IL-12p40 expression in nasal exudates at day 2 pi ([9]; in vivo, 25 mg/kg): reduced IL-12p40 expression
- TNF-α expression in nasal exudates at day 2 pi ([9]; in vivo, 25 mg/kg): reduced TNF-α expression
- Replication of various influenza A and B virus strains [10]: effective to inhibit the replication

Structure (SMILES): CCOC(=O)C1=C[C@@H](OC(CC)CC)[C@H](NC(C)=O)[C@@H](N)C1 [oseltamivir, reference compound]
- Infiltrating leukocytes in nasal washes at day 2 pi [4]: Lower numbers of infiltrating leukocytes
- Lung virus titers at day 4 pi [5]: considerably (p≤0.001) reduced lung virus titers
- Influenza-associated lung pathology and inflammation [8]: limited reduction in pathology
- Lung score of the representative animal (range 0–4) [8]: 3
- IFN-γ expression in nasal exudates at day 2 and 4 pi ([9]; in vivo): trend toward reduced IFN-γ expression
- IL-12p40 expression in nasal exudates at day 2 pi ([9]; in vivo): reduced IL-12p40 expression
- TNF-α expression in nasal exudates at day 2 pi ([9]; in vivo): reduced TNF-α expression

Structure (SMILES): O=C(/C=C\n1cnc(-c2cc(C(F)(F)F)cc(C(F)(F)F)c2)n1)NNc1cnccn1 [selinexor]
- Anti-cancer activity in human patients [11]: evidence of anti-cancer activity
- Oral exposure in human patients [11]: good oral exposure
